Format in all cases: cell-based
For test [1], the target named is T1, LPAR1 (Homo sapiens, UniProt Q92633).
T1 construct: host or cells: U2OS
The experiment in a line: LPAR1 Arrestin Assay (arrestin reporter assay). To be noted: U2OS cells stably expressing the LPAR1 receptor, 200 nM 18:1 LPA (EC80); for Emax: read-out: Maximum Inhibition. On the procedure:
One day prior to the experiment, frozen U2OS cells stably expressing the LPAR1 receptor (Life Technologies, Grand Island, N.Y., #K1519A) were thawed, centrifuged at 1,000 rpm for 5 minutes to remove DMSO, and resuspended in FreeStyle™ media (Gibco, Grand Island, N.Y.). Forty microliters of cells were plated into PDL-coated 384-well plates (Greiner Bio-One, Monroe, N.C.) at 10,000 cells/well, and then the plates were incubated overnight in humidified 5% CO2 at 37° C. Test compounds were dissolved in DMSO, and 12-point, 1:3 dilution CRCs were prepared in duplicate; daughter plates were prepared by aliquoting 0.8 μL/well of test compound dilutions into 384-well plates. On the day of the assay, the daughter plates were diluted to 6× stocks using HEPES-buffered HBSS, then 10 μL of 6× test compounds were added to the cells, and the plates were incubated at 37° C. for one hour. After this 1 hour incubation, 10 μL of a 6× stock of the LPAR1 agonist, 18:1 LPA (Avanti Polar Lipids, Alabaster, Ala.), was prepared in HEPES-buffered HBSS+0.1% fatty acid-free BSA (Sigma, St. Louis, Mo.). The 6×LPA was added to all wells for a final concentration of 200 nM, which corresponds to the 18:1 LPA EC80 in this arrestin assay. The final DMSO concentration in the assay plate was 0.1%, and the final BSA concentration was 0.02%. After addition of LPA to all wells, the assay plates were incubated in humidified 5% CO2 at 37° C. for five hours. During the incubation period, 6× dye from the LiveBLAzer™-FRET B/G with CCF4-AM kit (Life Technologies, Grand Island, N.Y.) was prepared according to manufacturers' instructions. At the end of the 5 hour compound incubation, 10 μL of 6× dye was added to each well, and the assay plate was incubated for two hours in the dark at room temperature. Throughout the assay procedure, all volume additions were performed with a Biomek® NX liquid handler (Beckman Coulter, Indianapolis, Ind.). After the 2 hour dye-load, fluorescence was measured on an EnVision® Multilabel Plate Reader (Perkin Elmer, Waltham, Mass.) with an excitation filter at 409/20 nm and emission filters at 460/40 nm and 530/30 nm. Data processing was performed as recommended by the LiveBLAzer™-FRET B/G with CCF4-AM kit manual; all test compound CRCs were performed in duplicate with n≥3.
(In general: In a reporter assay the amount or activity of a reporter protein is the signal.)

Test [2] addresses T1, LPAR1. Put plainly: LPAR1 FLIPR Assay. To be noted: U2OS cells stably expressing LPAR1, LPA (EC80), Calcium 6 FLIPR dye; for Emax: read-out: Maximum Inhibition. The method, boiled down:
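U2OS cells stably expressing LPAR1 were loaded with Calcium 6 dye for 2 h at 37° C, preincubated 3 min with compound (11-point 3-fold series), then stimulated with LPA at EC80. Fluorescence at 515-575 nm was recorded by FLIPR; IC50 came from four-parameter logistic fits of ratio data.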

Test [3] concerns LPA-induced MCP-1 in NRK-49F cells. The experiment in a line: LPA-induced MCP-1 AlphaLISA assay. Particulars: Rattus norvegicus, final LPA 10 μM, 7 hours; for Emax: read-out: Maximum Inhibition. The procedure, abridged:
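NRK-49F rat fibroblasts, serum-starved overnight, pretreated with compound for 30 min at 37 °C (1% DMSO final), then stimulated with 10 μM LPA final. MCP-1 in the supernatant was measured by mouse/rat CCL2 AlphaLISA. IC50 values came from four-parameter logistic fits of the ratio data.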
(In general: Bead proximity is the source of the signal in Alpha formats.)

A value given as a limit tells only on which side of the number the result lay.

T1 sequence (Q92633 whole entry): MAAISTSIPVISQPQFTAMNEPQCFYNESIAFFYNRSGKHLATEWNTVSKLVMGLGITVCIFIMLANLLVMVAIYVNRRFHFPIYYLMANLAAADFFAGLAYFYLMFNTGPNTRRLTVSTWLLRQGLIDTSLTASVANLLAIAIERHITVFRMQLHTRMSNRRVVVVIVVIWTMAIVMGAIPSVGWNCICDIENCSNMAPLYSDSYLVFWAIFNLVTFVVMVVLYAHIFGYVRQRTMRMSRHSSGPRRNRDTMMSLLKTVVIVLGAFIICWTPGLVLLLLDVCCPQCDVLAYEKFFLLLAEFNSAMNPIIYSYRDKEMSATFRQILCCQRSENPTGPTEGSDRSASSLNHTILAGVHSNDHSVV

As usually defined, the IC50 is the concentration that gives 50% inhibition. In the case of `COc1cc(C(=O)N(CCCCC(=O)O)CCCc2ccc(C)o2)c(F)c(OC)c1F` [Example 175, 5-{(2,4-difluoro-3,5-dimethoxybenzoyl)[3-(5-methylfuran-2-yl)propyl]amino}pentanoic Acid], the 50% inhibitory concentration (IC50) came to 5680 nM on LPAR1 [1], 48 nM on LPAR1 [2] and 3940 nM in test [3]. The Emax on LPAR1 [1] was 119%; on LPAR1 [2], 73%; in test [3] it was 67%.

With `COc1cc(OC)cc(C(=O)N(CCCCC(=O)O)CCCc2cccc(F)c2)c1` [Example 90, 5-{(3,5-dimethoxybenzoyl)[3-(3-fluorophenyl)propyl]amino}pentanoic Acid], the values for the IC50 (against LPAR1 [1]; on LPAR1 [2]; in test [3]) were 675 nM, 37 nM and 2500 nM, respectively. Besides, the Emax at LPAR1 [1] is 108%; on LPAR1 [2], 88%; in test [3] it was 76%.

In the case of `COc1cc(C(=O)N(CCCc2ccc(F)cc2)CCOCC(=O)O)cc(OC)c1C` [Example 139, (2-{(3,5-dimethoxy-4-methylbenzoyl)[3-(4-fluorophenyl)propyl]amino}ethoxy)acetic Acid], the results for the IC50 (at LPAR1 [1]; at LPAR1 [2]; in test [3]) were 464 nM, 46 nM and 3150 nM, respectively. The Emax at LPAR1 [1] was 125%; at LPAR1 [2], 78%; in test [3] it was 72%.

`COc1cc(C(=O)N(CCCc2ccccc2)CCCC(O)C(=O)O)cc(OC)c1C` (stereo not drawn) [Example 151, 5-[(3,5-dimethoxy-4-methylbenzoyl)(3-phenylpropyl)amino]-2-hydroxypentanoic Acid]: the IC50 on LPAR1 [1] came out at 665 nM; on LPAR1 [2], 37 nM; in test [3], 1630 nM. The Emax on LPAR1 [1] stood at 114%; on LPAR1 [2] it was 79%; in test [3] it was 79%.

As to `COc1cc(C(=O)N(CCCc2ccccc2)CCC[C@H](C)C(=O)O)cc(OC)c1C` (single isomer, unassigned) [Example 78], the IC50 on LPAR1 [1] was 11 nM; at LPAR1 [2], 33 nM; in test [3], 78 nM. Moreover, the figures for the Emax (at LPAR1 [1]; at LPAR1 [2]; in test [3]) were 103%, 100% and 95%, respectively.

For `COc1cc(C(=O)N(CCCc2ccccc2)CC(=O)NC(C)(C)C(=O)O)cc(OC)c1C` [Example 45, N-(3,5-dimethoxy-4-methylbenzoyl)-N-(3-phenylpropyl)glycyl-2-methylalanine], the concentration for half-maximal inhibition (IC50) against LPAR1 [1] came out at 494 nM; on LPAR1 [2] it was 51 nM; in test [3] it was 5540 nM. Further, the values for the Emax (at LPAR1 [1]; on LPAR1 [2]; in test [3]) were 108%, 91% and 71%, respectively.

`COc1cc(C(=O)N(CCCc2ccc(F)cc2F)CCOCC(=O)O)cc(OC)c1C` [Example 130, (2-{[3-(2,4-difluorophenyl)propyl](3,5-dimethoxy-4-methylbenzoyl)amino}ethoxy)acetic Acid]: the values for the IC50 (against LPAR1 [1]; on LPAR1 [2]; in test [3]) were 760 nM, 41 nM and 1790 nM, respectively. For the same molecule, the results for the Emax (on LPAR1 [1]; on LPAR1 [2]; in test [3]) were 119%, 83% and 83%, respectively.

For `COc1cc(C(=O)N(CCCCC(=O)O)CCCc2ccc(C)o2)cc(OC)c1C1CC1` [Example 178, 5-{(4-cyclopropyl-3,5-dimethoxybenzoyl)[3-(5-methylfuran-2-yl)propyl]amino}pentanoic Acid], the IC50 against LPAR1 [1] stood at 1560 nM; at LPAR1 [2], 45 nM; in test [3], 1970 nM. In addition, the figures for the Emax (at LPAR1 [1]; at LPAR1 [2]; in test [3]) were 122%, 84% and 77%, respectively.

As for `COc1cc(OC)cc(C(=O)N(CCCCC(=O)O)CCCc2ccccc2F)c1` [Example 134, 5-{(3,5-dimethoxybenzoyl)[3-(2-fluorophenyl)propyl]amino}pentanoic Acid], the half-inhibitory concentration (IC50) against LPAR1 [1] was 2240 nM; at LPAR1 [2] it was 74 nM; in test [3], greater than 10000 nM. For the same molecule, the values for the Emax (at LPAR1 [1]; on LPAR1 [2]; in test [3]) were 125%, 77% and 37%, respectively.

Take `COc1cc(OC)c(F)c(C(=O)N(CCCCC(=O)O)CCCc2ccccc2)c1` [Example 58, 5-[(2-fluoro-3,5-dimethoxybenzoyl)(3-phenylpropyl)amino]pentanoic Acid]: the IC50 was 636 nM on LPAR1 [1], 32 nM on LPAR1 [2] and 2390 nM in test [3]. Moreover, the Emax at LPAR1 [1] came out at 112%; on LPAR1 [2] it was 93%; in test [3], 78%.

For `COc1cc(C(=O)N(CCCc2ccccc2)CCOC(=O)NS(C)(=O)=O)cc(OC)c1C` [Example 184, 2-[(3,5-dimethoxy-4-methylbenzoyl)(3-phenylpropyl)amino]ethyl (methanesulfonyl)carbamate], the values for the IC50 (on LPAR1 [1]; at LPAR1 [2]; in test [3]) were 1550 nM, 131 nM and 5560 nM, respectively. For the same molecule, the Emax at LPAR1 [1] came out at 99%; on LPAR1 [2], 66%; in test [3], 58%.

Regarding `COc1cc(C(=O)N(CCCCC(=O)O)CCCc2ccccc2)cc(OC)n1` [Example 48, 5-[(2,6-dimethoxypyridine-4-carbonyl)(3-phenylpropyl)amino]pentanoic Acid], the figures for the half-maximal inhibitory concentration (IC50) (against LPAR1 [1]; on LPAR1 [2]; in test [3]) were 3320 nM, 52 nM and greater than 4770 nM, respectively. Besides, the Emax on LPAR1 [1] worked out at 113%; at LPAR1 [2], 81%; in test [3], 62%.

With `COc1cc(C(=O)N(CCCCC(=O)O)CCCc2c(F)cccc2F)cc(OC)c1C` [Example 147, 5-{[3-(2,6-difluorophenyl)propyl](3,5-dimethoxy-4-methylbenzoyl)amino}pentanoic Acid], the half-maximal inhibitory concentration (IC50) against LPAR1 [1] was 178 nM; at LPAR1 [2] it was 31 nM; in test [3], 665 nM. The Emax was found to be 122% at LPAR1 [1], 93% on LPAR1 [2] and 86% in test [3].

Regarding `COc1ccc(C2(C(=O)N(CCCCC(=O)O)CCCc3ccccc3)CC2)nc1` [Example 63, 5-{[1-(5-methoxypyridin-2-yl)cyclopropane-1-carbonyl](3-phenylpropyl)amino}pentanoic Acid], the IC50 on LPAR1 [1] came to 3070 nM; at LPAR1 [2], 80 nM; in test [3] it was 5530 nM. Also, the values for the Emax (on LPAR1 [1]; on LPAR1 [2]; in test [3]) were 118%, 87% and 51%, respectively.

In the case of `COc1cc(C(=O)N(CCCCC(=O)O)CCCc2ccccc2)c(F)c(OC)c1F` [Example 30, 5-[(2,4-difluoro-3,5-dimethoxybenzoyl)(3-phenylpropyl)amino]pentanoic Acid], the IC50 came to 618 nM at LPAR1 [1], 42 nM at LPAR1 [2] and 743 nM in test [3]. Moreover, the Emax at LPAR1 [1] came out at 118%; at LPAR1 [2], 96%; in test [3], 74%.

For the molecule `COc1cc(OC)c(Cl)c(C(=O)N(CCCCC(=O)O)CCCc2ccccc2)c1` [Example 39, 5-[(2-chloro-3,5-dimethoxybenzoyl)(3-phenylpropyl)amino]pentanoic Acid], the IC50 was determined as 1210 nM against LPAR1 [1], 54 nM at LPAR1 [2] and 318 nM in test [3]. Further, the values for the Emax (on LPAR1 [1]; on LPAR1 [2]; in test [3]) were 99%, 96% and 80%, respectively.

In the case of `COc1ccc(C2(C(=O)N(CCCCC(=O)O)CCCc3ccccc3)COC2)cc1` [Example 89, 5-{[3-(4-methoxyphenyl)oxetane-3-carbonyl](3-phenylpropyl)amino}pentanoic Acid], the values for the IC50 (at LPAR1 [1]; at LPAR1 [2]; in test [3]) were 445 nM, 36 nM and 4700 nM, respectively. The Emax turned out to be 114% at LPAR1 [1], 95% at LPAR1 [2] and 65% in test [3].

The values are drawn from patent US20190119200A1, “TERTIARY AMIDES AND METHOD OF USE” (AbbVie Inc., priority 2016, published 2019).
